melting point [°C]	SMILES
234 to 235	CCOC(=O)c1ccc2c(c1)CCC(CNC[C@H](O)c1cccc(Cl)c1)O2.Cl (some centres unmarked)
189 to 190	CCOC(=O)CCc1ccc2c(c1)CCC(CNC[C@H](O)c1cccc(Cl)c1)O2.Cl (some centres unmarked)

— patent publication US6797714B2, “Carboxyl substituted chroman derivatives useful as beta 3 adrenoreceptor agonists” (Bayer Pharmaceuticals Corporation, priority 1997, dated 2004)
